Test results taken from patent US9232792B2, “Method for promoting plant growth” (SUMITOMO CHEMICAL COMPANY, LIMITED, priority 2011, dated 2016).

Tests used:
Assay type in all cases: in vivo
[1] = test system: Corn (cultivar: Kuromochi); experiment: Test Example 5: reduction of low-temperature stress by treatment of corn seeds; settings: 2.5±1° C. for 4 days, then 4 days at 27° C.
Method: Corn (cultivar: Kuromochi) A blank slurry solution containing 10% (V/V) color coat red (Becker Underwood, Inc.), 10% (V/V) CF-Clear (Becker Underwood, Inc.) and 1.66% Maxim 4FS (Syngenta) was prepared. A slurry solution was prepared by dissolving the present compound 1 in the blank slurry solution such that 0.5 g, 5 g or 50 g of the compound is applied to each 100 kg of corn seeds. In a 50-ml centrifuge tube (manufactured by BD Japan), 0.35 ml of the slurry solution was placed for each 14.4 g of corn seeds and stirred until the solution was dried, thereby coating the seeds. In addition, seeds were coated with the blank slurry solution and used as seeds for a non-treated group. One of the treated corn seeds was sown in culture soil (AISAI) in each pot (55 mm in diameter×58 mm in height) and cultivated for 10 days under the conditions of a temperature of 27° C., an illuminance of 5,000 lux, and a day length of 16 hours. The grown seedlings were used for the test. The pots at 10 days after the sowing were placed into an artificial weather control room (VHT-2-[…]-NC2-S, manufactured by Nippon Medical & Chemical Instruments Co., Ltd) and cultivated for 4 days under the following conditions: -temperature: 2.5±1° C., day length: 16 hours, and illuminance: 5,000 lux. After the low-temperature stress treatment, the plants were cultivated for 4 days under the conditions of a temperature of 27° C., an illuminance of 5,000 lux, and a day length of 16 hours. Then, the fresh weight of the overground part of the plants was measured. The experiment was performed in four replications for each treatment condition and the average weight per individual was calculated. As a result, the fresh weight of the overground part of plants in the treated group of applying 0.5 g, 5 g or 50 g of the present compound 1 to each 100 kg of seeds was much heavier than that in the non-treated group.

[2] = test system: Rice (cultivar: Nipponbare); experiment: Test Example 2: reduction of low-temperature stress by immersion treatment of rice; settings: 1 ppm in hydroponic solution; 4° C. for 5 days, then 4 days at 25° C.
Method: (§1) Rice (cultivar: Nipponbare)
A necessary amount of rice seeds was immersed in an aqueous solution of 1,000 ppm of Benlate, and incubated at 30° C. overnight under dark conditions. The aqueous solution of Benlate was replaced with distilled water, and the seeds were further incubated at 30° C. overnight under dark conditions to stimulate the germination of the seeds. A filter paper was placed on the holes of a plug tray having 406 holes, and the rice seeds obtained after the stimulation of germination were sown on the filter paper. To the rice seeds was added a kimura B solution for hydroponics (see Plant Science 119: 39-47 (1996)) at ½ concentration, and cultivated for 5 days in an artificial weather control room under the following conditions: • temperature: daytime 28° C./night 23° C., humidity: 70%, illuminance: 8,500 lux, and day length: 12 hours. <Compound Treatment> […]
Four (4) days after the cultivation, the overground part of each rice plant in the treated group was taken a photograph, and the area of a green portion in the obtained image data was measured with image analysis software Win ROOF (manufactured by MITANI CORPORATION) to determine the green area of the overground part of the plant. In the treated group, the experiment was performed in duplication and the average value of the green area per individual was calculated. […]

[3] = test system: Rice (cultivar: Nipponbare); experiment: Test Example 1: promotion of root growth in hydroponics of rice; settings: 1 ppm in hydroponic solution; 3 days germination + 3 days cultivation
Method: as §1
DMSO solutions containing each of the present compounds 1 to 3 at 10,000 ppm were prepared. A 1/10,000 volume of each DMSO solution containing each of the present compounds 1 to 3 at 10,000 ppm was added to a Hoagland solution for hydroponics at ¼ concentration (Hoagland and Arnon, California Agricultural Experiment Station 1950 Circular 347 pp. 34) to obtain a solution for hydroponics containing each of the present compounds 1 to 3 at 1 ppm. These solutions were used in the treated-group.
In a non-treated group, a solution for hydroponics obtained by adding a Hoagland solution for hydroponics at ¼ concentration to a 1/10,000 volume of DMSO was used.
The rice seeds were immersed in an aqueous solution of 1% sodium hypochlorite for 10 minutes, followed by 70% ethanol solution to sterilize their surfaces. After that, the seeds were washed with distilled water. The sterilized seeds were immersed in each solution for hydroponics containing the test compound at the given concentration, and incubated at a temperature of 28° C. for 3 days under dark conditions to stimulate the germination of the seeds.
Then, 30 ml of each solution for hydroponics containing the test compound at the given concentration was dispensed into a plastic tube (20 mm in diameter×113 mm in height) covered with a cardboard on the lateral surface for blocking a light. A float made of a styrene board and a vinyl mesh was placed on the water surface of each solution for hydroponics, and the rice seeds obtained after the stimulation of germination were placed on the float. The seeds were cultivated for 3 days under the conditions of an illuminance of 4,000 lux at the top of the tube, a temperature of 26° C., a humidity of 50%, and a day length of 16 hours.
The root length of the rice seedlings obtained after the cultivation was measured by using WinRHIZO system (manufactured by REGENT INSTRUMENTS). The average value of the root length in the treated group was calculated from the measurement values of 4 or 5 individuals. […]

## O=C(O)c1cc2cc(C(F)(F)F)ccc2s1 [The present compound 1, 5-(trifluoromethyl)benzo[b]thiophene-2-carboxylic acid]
[1]; seed treatment 0.5 g per 100 kg of seeds
  fresh weight of the overground part of plants vs non-treated group: much heavier
[1]; seed treatment 5 g per 100 kg of seeds
  fresh weight of the overground part of plants vs non-treated group: much heavier
[1]; seed treatment 50 g per 100 kg of seeds
  fresh weight of the overground part of plants vs non-treated group: much heavier
[2]
  green area of the overground part of the plant vs non-treated group: much larger
[3]
  root length of the rice seedlings vs non-treated group: much longer
